Assay results as given in PubChem BioAssay (NCI).
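Grown in 96-well plates, cells were treated for 48 hours with each compound at five concentrations. Insufficient inhibition: endpoint recorded as highest concentration tested. TGI marks complete inhibition of growth.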

Assays:
Assay in all cases: NCI-60 cell line screen, 48 h
[1] = tested on: RXF-631 renal
[2] = tested on: LXFL 529 NSCLC
[3] = tested on: SF-539 CNS
[4] = tested on: HCT-15 colon
[5] = tested on: IGROV1 ovarian
[6] = tested on: NCI-H522 lung
[7] = tested on: K-562 leukemia
[8] = tested on: SF-268 CNS
[9] = tested on: 786-0 renal
[10] = tested on: HCT-116 colon
[11] = tested on: MALME-3M melanoma
[12] = tested on: NCI-H23 lung
[13] = tested on: OVCAR-5 ovarian
[14] = tested on: HT29 colon
[15] = tested on: HL-60(TB) leukemia
[16] = tested on: SW-620 colon
[17] = tested on: RPMI-8226 leukemia
[18] = tested on: SK-MEL-28 melanoma
[19] = tested on: UACC-62 melanoma
[20] = tested on: SF-295 CNS
[21] = tested on: NCI-H226 lung
[22] = tested on: SNB-75 CNS
[23] = tested on: OVCAR-3 ovarian
[24] = tested on: NCI-H460 lung
[25] = tested on: UO-31 renal
[26] = tested on: CAKI-1 renal
[27] = tested on: DMS 273 small cell lung
[28] = tested on: LOX IMVI melanoma
[29] = tested on: DLD-1 colon
[30] = tested on: KM20L2 colon
[31] = tested on: ACHN renal
[32] = tested on: UACC-257 melanoma
[33] = tested on: OVCAR-8 ovarian
[34] = tested on: M14 melanoma
[35] = tested on: HOP-92 NSCLC
[36] = tested on: SNB-19 CNS
[37] = tested on: XF 498 CNS
[38] = tested on: A549 NSCLC
[39] = tested on: SNB-78 CNS
[40] = tested on: HOP-62 NSCLC
[41] = tested on: SK-MEL-2 melanoma
[42] = tested on: TK-10 renal
[43] = tested on: SK-OV-3 ovarian
[44] = tested on: COLO 205 colon
[45] = tested on: SN12C renal
[46] = tested on: KM12 colon
[47] = tested on: OVCAR-4 ovarian
[48] = tested on: U251 CNS
[49] = tested on: EKVX NSCLC
[50] = tested on: MOLT-4 leukemia
[51] = tested on: M19-MEL melanoma
[52] = tested on: RXF 393 renal
[53] = tested on: HOP-18 NSCLC
[54] = tested on: DMS 114 small cell lung
[55] = tested on: CCRF-CEM leukemia
[56] = tested on: SK-MEL-5 melanoma
[57] = tested on: HCC-2998 colon
[58] = tested on: A498 renal
[59] = tested on: NCI/ADR-RES ovarian
[60] = tested on: MCF7 breast
[61] = tested on: T-47D breast
[62] = tested on: DU-145 prostate
[63] = tested on: MDA-MB-435
[64] = tested on: MDA-MB-231 breast
[65] = tested on: HS 578T breast
[66] = tested on: MDA-N
[67] = tested on: SR leukemia
[68] = tested on: PC-3 prostate

Measured: TGI

COc1ccc(Nc2nc(C#N)c(N)s2)cc1
77.8 µM: [17]
89.6 µM: [42]
60.3 µM: [31]
91.3 µM: [20]
47.8 µM: [12]
89.2 µM: [15]
64 µM: [37]
56.1 µM: [28]
not listed: [49] | [50] | [51] | [52] | [53] | [54] | [55] | [56] | [57] | [58] | [59] | [60] | [61] | [62] | [63] | [64] | [65] | [66] | [67] | [68]
> 100 µM: all other assays above

O=S1[C@H](c2ccccc2)c2c(-c3ccccc3)sc(-c3ccccc3)c2[C@@H]1c1ccccc1 (some centres not stated)
27.2 µM: [6]
67.9 µM: [35]
87.9 µM: [22]
40.6 µM: [15]
not listed: [10] | [21] | [37] | [39] | [58] | [59] | [60] | [61] | [62] | [63] | [64] | [65] | [66] | [67] | [68]
> 100 µM: all other assays above

Cc1nc2c(n1-c1ccc(Br)cc1)C(=O)c1ccccc1C2=O
18 µM: [15]
> 64.4 µM: [5]
66 µM: [35]
> 74 µM: [10]
69.9 µM: [52]
> 39.4 µM: [36]
> 85.1 µM: [19]
> 71.1 µM: [9]
97 µM: [43]
23.3 µM: [63]
> 40.9 µM: [24]
51 µM: [68]
50 µM: [65]
> 79.2 µM: [6]
> 65.2 µM: [3]
> 67.2 µM: [11]
> 43.6 µM: [48]
> 59.6 µM: [20]
> 70.1 µM: [33]
31.3 µM: [23]
> 62.1 µM: [22]
> 40.6 µM: [25]
not listed: [2] | [30] | [37] | [51] | [53]
> 100 µM: all other assays above

CC(C)(C)c1ccc2c(c1)S(=O)(=O)Nc1cccc(c1)NS(=O)(=O)c1cc(C(C)(C)C)ccc1OCCOCCO2
not listed: [2] | [6] | [15] | [30] | [37] | [55] | [59] | [60] | [61] | [62] | [63] | [64] | [65] | [66] | [67] | [68]
> 100 µM: all other assays above

O=C1CCC(=O)N1CNc1cccc(NCN2C(=O)CCC2=O)c1
46.1 µM: [17]
49.8 µM: [15]
28.4 µM: [30]
not listed: [21] | [26] | [28] | [43] | [53] | [54] | [58] | [59] | [60] | [61] | [62] | [63] | [64] | [65] | [66] | [67] | [68]
> 100 µM: all other assays above
